Patent publication US20020151562A1, “Compositions and methods for treating allergic fungal sinusitis” (priority 2001, published 2002)
“Also recorded” adds a separate entry of the source.

System: patients diagnosed to have allergic fungal sinusitis resistant to treatment
Assay: Nasal Spray Study: patient questionnaire after two months of intranasal treatment
Details: for effectiveness in treating allergic fungal sinusitis, allergic rhinitis and asthma (symptom relief): extremely low dose, patients resistant to standard treatments including corticosteroids; for side effects: low dose, patients tested
Source text: Fifty-four patients were selected on the basis of their failure to respond to intranasal corticosteroids for the treatment of acute and chronic sinusitis and allergic rhinitis and positive skin tests to fungi. […] The age range was 6 years to 71 years.
Each patient was instructed to use two sprays in each nostril twice daily, AM and PM for a total of four sprays per nostril per day. Treatment lasted for two months.
Therefore, the status of the patients' symptoms were documented over a period of two months.
The following statements were posed to the patients after treatment for two months with regard to their symptoms before and after the course of treatment.

[1] = intranasal, listed as compound of formula I

CC(C)(O)c1ccccc1CC[C@@H](SCC1(CC(=O)[O-])CC1)c1cccc(/C=C/c2ccc3ccc(Cl)cc3n2)c1.[Na+] [sodium salt of montelukast, montelukast]
Total Number of Patients Post Treatment Reporting Improvement (sinus pain, post nasal drip and nasal congestion worse in cold weather) (52 tested, 21 reporting prior to treatment, intranasal, two months): 14 patients
Total Number of Patients Post Treatment that Reported Improvement (worry that sinus pain, post nasal drip and nasal congestion affect health and make it difficult to sleep) (52 tested, 31 reporting prior to treatment, intranasal, two months): 30 patients
Total Number of Patients Reporting Improvement (sinus and nasal congestion worse around tobacco smoke, fumes or strong odors) (52 tested, 42 reporting prior to treatment, intranasal, two months): 24 patients
Total Number of Patients Post Treatment Reporting Improvement (sleeping trouble due to coughing and choking attacks, post nasal drip and sinus pain) (52 treated, 29 reporting prior to treatment, intranasal, two months): 28 patients
Total Number of Patients Post Treatment that Reported Improvement (allergy medicine does not control nasal congestion, sinusitis, post nasal drip and ear congestion) (52 treated, 42 reporting prior to treatment, intranasal, two months): 42 patients
Total Number of Patients Reporting Improvement (respiratory infection goes into sinuses, ears and nose) (52 treated, 44 reporting prior to treatment, intranasal, two months): 27 patients
Total Number of Patients Post Treatment Reporting Improvement (dust, pollen and pets cause nasal congestion, sinus pain, ear pain and dizziness) (52 treated, 45 reporting prior to treatment, intranasal, two months): 37 patients
patients with positive results and alleviation of major symptoms (at the end of two months, of the fifty-two patients, intranasal saline spray): forty-two
effectiveness in treating allergic fungal sinusitis, allergic rhinitis and asthma (symptom relief) (intranasal): effective not only in relieving nasal congestions, sinus pain, post nasal drip, throat pain and serous otitis media, but it also helped their asthma; also recorded: effective
effectiveness in treating allergic fungal sinusitis, allergic rhinitis and asthma (symptom relief) [1]: improvement in these non-responders was noticed
side effects (intranasal): no significant side effects
side effects [1]: without harmful effects
time to some recovery after application (nasal spray, low dosages): within one day
Total Number of Patients Reporting Improvement of Breathing Post-Treatment (statement: trouble breathing or cough when walking or doing simple chores, 52 treated, 34 with trouble breathing before treatment, intranasal, two months): 24 patients
